Results taken from patent US20230234942A1, “COMPOUNDS FOR TREATING HUNTINGTON'S DISEASE” (PTC Therapeutics, Inc., priority 2020, published 2023).

Tested on: Endogenous Huntingtin Protein
Assay: Endogenous Huntingtin Protein Assay (ELISA-based MSD electrochemiluminescence)
Assay type: cell-based
Details: Table 2; MSD plates coated with MW1 (expanded polyglutamine) or MAB2166 capture antibody; "inactive" = result above the detection limit of the assay
Protocol: Compounds of Formula (I) were tested using the Meso Scale Discovery (MSD) Assay provided in International Application No. PCT/US2016/066042, filed on Dec. 11, 2016 and claiming priority to U.S. Provisional Application 62/265,652 filed on Dec. 10, 2015, the entire contents of which are incorporated herein by reference.
The Endogenous Huntingtin Protein assay used in Biological Example 1 was developed using the ELISA-based MSD electrochemiluminescence assay platform.
Meso Scale Discovery (MSD) 96-well or 384-well plates were coated overnight at 4° C. with MW1 (expanded polyglutamine) or MAB2166 monoclonal antibody (for capture) at a concentration of 1 μg/mL in PBS (30 μL per well). Plates were then washed three times with 300 μL wash buffer (0.05% Tween-20 in PBS) and blocked (100 μL blocking buffer; 5% BSA in PBS) for 4-5 hours at room temperature with rotational shaking and then washed three times with wash buffer.
Samples (25 μL) were transferred to the antibody-coated MSD plate and incubated overnight at 4° C. After removal of the lysates, the plate was washed three times with wash buffer, and 25 μL of #56565 (Cell signaling; rabbit monoclonal) secondary antibody (diluted to 0.25 μg/mL in 0.05% Tween-20 in blocking buffer) was added to each well and incubated with shaking for 1 Hour at room temperature. Following incubation with the secondary antibody, the wells were rinsed with wash buffer after which 25 μL of goat anti-rabbit SULFO TAG secondary detection antibody (required aspect of the MSD system) (diluted to 0.25 μg/mL in 0.05% Tween-20 in blocking buffer) was added to each well and incubated with shaking for 1 hour at room temperature. After rinsing three times with wash buffer, 150 μL of read buffer T with surfactant (MSD) were added to each empty well, and the plate was imaged on a SI 6000 imager (MSD) according to manufacturers' instructions provided for 96- or 384-well plates.

| Compound | IC50 [nM] |
| --- | --- |
| CC(C)[C@H]1CN(c2ncc(-c3ccc(-c4cnsn4)cc3O)nn2)CCN1 [Cpd 265, 2-{3-[(3S)-3-(propan-2-yl)piperazin-1-yl]-1,2,4-triazin-6-yl}-5-(1,2,5-thiadiazol-3-yl)phenol] | 292 |
| CC(C)C1CN(c2ncc(-c3ccc(-c4c[nH]nc4F)cc3O)nn2)CCN1 (centres unmarked) [Cpd 15, 5-(3-fluoro-1H-pyrazol-4-yl)-2-{3-[3-(propan-2-yl)piperazin-1-yl]-1,2,4-triazin-6-yl]phenol] | 12.8 |
| Cc1cn2nc(-c3ccc(-c4cnc(N5CCN(C)CC5)nn4)c(O)c3)ccc2n1 [Cpd 82, 5-(2-methylimidazo[1,2-b]pyridazin-6-yl)-2-[3-(4-methylpiperazin-1-yl)-1,2,4-triazin-6-yl]phenol] | 5.5 |
| Oc1cc(-c2cnn3c2CCC3)ccc1-c1cnc(N2CCN[C@@H](C3CC3)C2)nn1 [Cpd 276, 2-{3-[(3S)-3-cyclopropylpiperazin-1-yl]-1,2,4-triazin-6-yl}-5-(5,6-dihydro-4H-pyrrolo[1,2-b]pyrazol-3-yl)phenol] | 3.7 |
| CNc1ccc(-c2ccc(-c3cnc(N4CCN[C@@H](C5CC5)C4)nn3)c(O)c2)cc1 [Cpd 179, 4-{3-[(3S)-3-cyclopropylpiperazin-1-yl]-1,2,4-triazin-6-yl}-4‘-(methylamino)[1,1‘-biphenyl]-3-ol] | 113 |
| Cc1nc2c(C)cc(-c3ccc(-c4cnc(N5CCN[C@@H](C(C)C)C5)nn4)c(O)c3)nn2n1 [Cpd 92, 5-(2,8-dimethyl[1,2,4]triazolo[1,5-b]pyridazin-6-yl)-2-{3-[(3S)-3-(propan-2-yl)piperazin-1-yl]-1,2,4-triazin-6-yl}phenol] | 7.9 |
| Oc1cc(-n2nccn2)cnc1-c1cnc(N2CCN[C@@H](C3CC3)C2)nn1 [Cpd 182, 2-{3-[(3S)-3-cyclopropylpiperazin-1-yl]-1,2,4-triazin-6-yl}-5-(2H-1,2,3-triazol-2-yl)pyridin-3-ol] | 173 |
| COc1nnc(-c2ccc(-c3cnc(N4CCN[C@@H](C(C)C)C4)nn3)c(O)c2)s1 [Cpd 204, 5-(5-methoxy-1,3,4-thiadiazol-2-yl)-2-{3-[(3S)-3-(propan-2-yl)piperazin-1-yl]-1,2,4-triazin-6-yl}phenol] | 162 |
| Oc1cc(-c2cn[nH]c2)ccc1-c1cnc(N2CCNC(c3ccncc3)C2)nn1 (centres unmarked) [Cpd 62, 5-(1H-pyrazol-4-yl)-2-{3-[3-(pyridin-4-yl)piperazin-1-yl]-1,2,4-triazin-6-yl}phenol] | 2390 |
| CC(C)(O)C1CN(c2ncc(-c3ccc(-c4c[nH]nc4F)cc3O)nn2)CCN1 (centres unmarked) [Cpd 4, 5-(3-fluoro-1H-pyrazol-4-yl)-2-{3-[3-(2-hydroxypropan-2-yl)piperazin-1-yl]-1,2,4-triazin-6-yl}phenol] | 4.5 |
| CC(C)N1CCN(c2ncc(-c3ccc(-c4cn[nH]c4)cc3O)nn2)CC1 [Cpd 60, 2-{3-[4-(propan-2-yl)piperazin-1-yl]-1,2,4-triazin-6-yl}-5-(1H-pyrazol-4-yl)phenol] | 1010 |
| CC(C)[C@H]1CN(c2ncc(-c3ncc(-c4cc(F)c5nn(C)cc5c4)cc3O)nn2)CCN1 [Cpd 157, 5-(7-fluoro-2-methyl-2H-indazol-5-yl)-2-{3-[(3S)-3-(propan-2-yl)piperazin-1-yl]-1,2,4-triazin-6-yl}pyridin-3-ol] | 7.8 |
| Cc1nc2c(C)nc(-c3ccc(-c4cnc(N5C[C@@H](C)N[C@@H](C)C5)nn4)c(O)c3)cn2n1 [Cpd 101, 2-{3-[(3R,5S)-3,5-dimethylpiperazin-1-yl]-1,2,4-triazin-6-yl}-5-(2,8-dimethyl[1,2,4]triazolo[1,5-a]pyrazin-6-yl)phenol] | 13 |
| COc1cc(-c2ccc(-c3cnc(N4C[C@@H](C)N[C@@H](C(C)(C)C)C4)nn3)c(O)c2)ncn1 [Cpd 255, 2-{3-[(3S,5R)-3-tert-butyl-5-methylpiperazin-1-yl]-1,2,4-triazin-6-yl}-5-(6-methoxypyrimidin-4-yl)phenol] | 341 |
| CC[C@@H]1CN(c2ncc(-c3ccc(-c4cn[nH]c4F)cc3O)nn2)C[C@H](C)N1 [Cpd 218, 2-{3-[(3R,5S)-3-ethyl-5-methylpiperazin-1-yl]-1,2,4-triazin-6-yl}-5-(5-fluoro-1H-pyrazol-4-yl)phenol] | 73.8 |
| COc1cc(-c2cc(O)c(-c3cnc(N4CCN[C@@H](C(C)C)C4)nn3)c(F)c2)ncn1 [Cpd 28, 3-fluoro-5-(6-methoxypyrimidin-4-yl)-2-{3-[(3S)-3-(propan-2-yl)piperazin-1-yl]-1,2,4-triazin-6-yl}phenol] | 26.2 |

| Compound | IC50 [nM] |
| --- | --- |
| Cn1nnc2nc(-c3ccc(-c4cnc(N5CCN[C@@H](C6CC6)C5)nn4)c(O)c3)ccc21 [Cpd 171, 2-{3-[(3S)-3-cyclopropylpiperazin-1-yl]-1,2,4-triazin-6-yl}-5-(1-methyl-1H-[1,2,3]triazolo[4,5-b]pyridin-5-yl)phenol] | 14.1 |
| C[C@@H]1CN(c2ncc(-c3ccc(-c4c[nH]nc4F)cc3O)nn2)C[C@H](C(C)(C)C)N1 [Cpd 248, 2-{3-[(3S,5R)-3-tert-butyl-5-methylpiperazin-1-yl]-1,2,4-triazin-6-yl]-5-(3-fluoro-1H-pyrazol-4-yl)phenol] | 74.9 |
| OC[C@@H]1CN(c2ncc(-c3ccc(-n4nccn4)cc3O)nn2)CCN1 [Cpd 45, 2-{3-[(3S)-3-(hydroxymethyl)piperazin-1-yl]-1,2,4-triazin-6-yl}-5-(2H-1,2,3-triazol-2-yl)phenol] | 142 |
| C[C@H]1CN(c2ncc(-c3ccc(-c4cn[nH]c4)cc3O)nn2)C[C@@H](C2CC2)N1 [Cpd 224, 2-{3-[(3R,5S)-3-cyclopropyl-5-methylpiperazin-1-yl]-1,2,4-triazin-6-yl]-5-(1H-pyrazol-4-yl)phenol] | 232 |
| Oc1cc(-c2cn[nH]c2)ccc1-c1cnc(N2CCN[C@H](C3CC3)C2)nn1 [Cpd 136, 2-{3-[(3R)-3-cyclopropylpiperazin-1-yl]-1,2,4-triazin-6-yl}-5-(1H-pyrazol-4-yl)phenol] | 50.5 |
| CC(C)[C@H]1CN(c2ncc(-c3ccc(-c4ncc(C#N)s4)cc3O)nn2)CCN1 [Cpd 272, 2-(3-hydroxy-4-{3-[(3S)-3-(propan-2-yl)piperazin-1-yl]-1,2,4-triazin-6-yl}phenyl)-1,3-thiazole-5-carbonitrile] | 356 |
| CC(C)[C@H]1CN(c2ncc(-c3cc(F)c(-c4cn[nH]c4)cc3O)nn2)CCN1 [Cpd 158, 4-fluoro-2-{3-[(3S)-3-(propan-2-yl)piperazin-1-yl]-1,2,4-triazin-6-yl}-5-(1H-pyrazol-4-yl)phenol] | 5.6 |
| Cn1cc(-c2ccc(-c3cnc(N4CCN[C@@H](C(C)(C)C)C4)nn3)c(O)c2)cn1 [Cpd 21, 2-{3-[(3S)-3-tert-butylpiperazin-1-yl]-1,2,4-triazin-6-yl]-5-(1-methyl-1H-pyrazol-4-yl)phenol] | 20.8 |
| Cn1cc2cc(-c3cnc(-c4cnc(N5CCN[C@@H](C6CC6)C5)nn4)c(O)c3)cc(F)c2n1 [Cpd 181, 2-{3-[(3S)-3-cyclopropylpiperazin-1-yl]-1,2,4-triazin-6-yl}-5-(7-fluoro-2-methyl-2H-indazol-5-yl)pyridin-3-ol] | 6.2 |
| COc1cc(-c2ccc(-c3cnc(N4C[C@@H](C)N[C@@H](C)C4)nn3)c(O)c2)nn2nc(C)nc12 [Cpd 90, 2-{3-[(3R,5S)-3,5-dimethylpiperazin-1-yl]-1,2,4-triazin-6-yl}-5-(8-methoxy-2-methyl[1,2,4]triazolo[1,5-b]pyridazin-6-yl)phenol] | 6.8 |
| CC(C)[C@H]1CN(c2ncc(-c3ccc(-c4nc5cccnc5s4)cc3O)nn2)CCN1 [Cpd 191, 2-{3-[(3S)-3-(propan-2-yl)piperazin-1-yl]-1,2,4-triazin-6-yl}-5-([1,3]thiazolo[5,4-b]pyridin-2-yl)phenol] | 621 |
| Cc1cn2cc(-c3cnc(-c4cnc(N5CCN(C)CC5)nn4)c(O)c3)cc(C)c2n1 [Cpd 126, 5-(2,8-dimethylimidazo[1,2-a]pyridin-6-yl)-2-[3-(4-methylpiperazin-1-yl)-1,2,4-triazin-6-yl]pyridin-3-ol] | 100 |
| Cc1cn2nc(-c3ccc(-c4cnc(N5CCN[C@H](C)C5)nn4)c(O)c3)cc(C)c2n1 [Cpd 98, 5-(2,8-dimethylimidazo[1,2-b]pyridazin-6-yl)-2-{3-[(3R)-3-methylpiperazin-1-yl]-1,2,4-triazin-6-yl]phenol] | 10.2 |
| COc1cc(-c2ccc(-c3cnc(N4C[C@@H](C)N[C@@H](C(C)C)C4)nn3)c(O)c2)ncn1 [Cpd 230, 5-(6-methoxypyrimidin-4-yl)-2-{3-[(3R,5S)-3-methyl-5-(propan-2-yl)piperazin-1-yl]-1,2,4-triazin-6-yl}phenol] | 11.3 |
| 4-fluoro-5-[1-(^2H3)methyl-1H-pyrazol-4-yl]-2-{3-[(3S)-3-(propan-2-yl)piperazin-1-yl]-1,2,4-triazin-6-yl}phenol [Cpd 152] | 15 |
| CC(C)[C@H]1CN(c2ncc(-c3ccc(-c4cnn5c4CCC5)cc3O)nn2)CCN1 [Cpd 278, 5-(5,6-dihydro-4H-pyrrolo[1,2-b]pyrazol-3-yl)-2-{3-[(3S)-3-(propan-2-yl)piperazin-1-yl]-1,2,4-triazin-6-yl}phenol] | 8.3 |
